{
  "source": "patent US20020103082A1",
  "about": "“Adjuvant activity through modulation of animal and plant cell membrane transport” (Board of Regents, The University of Texas System, priority 2000, published 2002)",
  "key": {"[1]": {"tested_on": "AtPGP-1 overexpressing (MDR OE) Arabidopsis thaliana plants", "type": "in vivo", "settings": "AtPGP-1 overexpressing plants; cycloheximide 500 ng/ml alone or phosphatase inhibitor 1 mM alone; after 10-20 days", "description": "(§1) Arabidopsis seeds were sown in a solid germination media containing MS salts (Sigma Chemical, St. Louis, Mo.), 2% sucrose, 0.8% agar, and vitamins (Valvekens, D. et al., […], Proc. Natl. Acad. Sci. USA 85:5536-5540). For selection assays, one of the following, or a combination of both, was added to media (cooled to less than 50° C. before adding) immediately prior to pouring into plates: cycloheximide at a final concentration of 500 ng/ml; α,β-methyleneadenosine 5′-diphosphate at a final concentration of 1 mM. Plant growth was measured by germination percentage after 10-20 days. All other materials and methods were iscussed above in Example 2."}, "[2]": {"tested_on": "YMR4 yeast mutant deficient in two major extracellular phosphatases", "experiment": "Yeast drug selection growth assay", "type": "cell-based, Saccharomyces cerevisiae", "description": "(§2) Yeast were grown at 30 C under conditions of constant selection for uracil auxotrophy. YNB (BiolOl, Vista, Calif.) supplemented with CSM (uracil dropout) and 2% glucose was used to grow strains having pVT101 constructs. Cycloheximide (Sigma Chemical, St. Louis, Mo.) was added to liquid media or spread on solid media to achieve a final concentration of 500 ng/ml. Nigericin (Sigma Chemical, St. Louis, Mo.) was added to liquid media or spread on solid media to achieve a final concentration of 25 μg/ml. Yeast strains used in cycloheximide selection assays were always propagated in the presence of the cycloheximide on plates and then streaked onto new plates containing drug or no drug, such that induced resistance existed in each strain at the time of the start of the assay. For selection assays on plates, single colonies were streaked; for selection in liquid media 0.01 ml of saturated culture was added to fresh media containing the drug. The plates shown in figures were grown for 3-5 days before photographs were taken. Yeast selection assays in liquid media were quantitated by turbidity as measured by absorbance at OD600."}, "[3]": {"tested_on": "wild-type yeast strain INVSC1", "experiment": "Yeast drug selection growth assay", "type": "cell-based, Saccharomyces cerevisiae", "settings": "cycloheximide 500 ng/ml", "description": "as §2"}, "[4]": {"tested_on": "wild-type Arabidopsis thaliana plants", "experiment": "Arabidopsis germination selection assay", "type": "in vivo", "settings": "cycloheximide 500 ng/ml alone or phosphatase inhibitor 1 mM alone, after 10-20 days", "description": "as §1"}, "[5]": {"tested_on": "wild-type yeast strain INVSC with plasmid pvt101-U", "experiment": "Increasing yeast sensitivity to fungicide (filter disk zone of inhibition)", "type": "cell-based, Saccharomyces cerevisiae", "settings": "48 hours", "description": "Additional experiment were performed to test the ability of ecto-phosphatase inhibitors to increase the effectiveness of the commonly used fungicide chlorothalonil. Yeast was plated on media with or without an ecto-phosphatase inhibitor of Formula X where a paper filter disk soaked in the fungicide was added to the plate. After 48 hours, the zone of inhibition of yeast growth around the filter disk was calculated.\nThe wild-type yeast strain INVSC with plasmid pvt101-U (for selection on media lacking uracil) was used in all experiments and each experiment was performed in triplicate. Media used was made by combining YNB (Bio 101, Vista, Calif.), the drop out supplement CSM-URA (Bio 101, Vista, Calif.), and glucose in water. […]\nTwenty μl of an overnight saturated culture of yeast was plated onto each plate, spread, and allowed to dry for 20 minutes. […] The zone of inhibition of yeast growth around the disk was assessed after 48 hours.\nPlates with chlorothalonil disks indeed contained a zone of inhibition surrounding the disk. […] The zone of inhibition was calculated by measuring the radius from the center of the disk to the point of noticeable yeast growth (at least 10 measurements per plate), averaging the radii measurements, and using the average radius of the plates to calculate the circular area of the zone of inhibition."}, "[6]": {"tested_on": "acid phosphatase yeast mutant YMR4", "experiment": "Salvage pathway experiments in yeast (turbidity)", "type": "cell-based, Saccharomyces cerevisiae", "settings": "added to media with cycloheximide; 72 hours", "description": "All cell lines were grown in liquid media either containing drug (for the drug selected lines) or not containing drug (for the non-drug selected lines). When the cultures reached a turbidity of 1.00 as measured at a wavelength of 600 in a spectrophotometer (OD600=1.00), 10 μl of each culture was then removed and placed in either media with nothing added, 3 mM potassium phosphate; 3 mM adenosine; 9 mM potassium phosphate and 3 mM adenosine (for controls); potassium phosphate and cycloheximide; adenosine and cycloheximide; adenosine, cycloheximide, and potassium phosphate. Cell cultures were further grown for 72 hours, and their turbidity was determined by OD600 readings on a spectrophotometer. Growth of cell lines for nigericin experiments: Drug selected lines were removed from cycloheximide containing plates and placed in 5 ml liquid media containing 5 ng/ml cycloheximide. Cell cultures were allowed to grow until they reached an OD600 reading of 1.00, and then 10 μl from each culture was removed and transferred to culture tubes containing 5 ml of liquid media and 25 μg/ml nigericin. OD600 readings were recorded daily for a period of up to 72 hours to determine growth."}, "[7]": {"tested_on": "yeast cells (YMR4 and INVSC, with or without AtPGP-1)", "type": "cell-based, Saccharomyces cerevisiae", "settings": "100 mM ATP, 48 hours", "description": "To create drug resistant yeast strains, all four cell lines were grown up in the presence of 500 ng/ml of cycloheximide, and transferred to other cycloheximide containing plates after a period of four to six days. This transfer of cell lines and subculturing continued such that the yeast cells grew in the presence of cycloheximide for a period of at least a month.\nCells cultured in media alone: To create cell lines that had not been preselected for their ability to grow in drug, yeast strains were grown on plates containing YNB (Bio101, Vista, Calif.) without uracil (-URA) to maintain the presence of the vector (which supplies URA) without any drugs added.\nCells were transferred into 5 ml YNB -URA liquid media for turbidity measurements. All cell lines (both non-drug selected and drug-selected) were grown in media with the addition of either nothing, 500 ng/ml cycloheximide, 100 mM ATP, or 500 ng/ml cycloheximide and 100 mM ATP. Turbidity readings were taken after 48 hours."}, "[8]": {"tested_on": "Arabidopsis thaliana WS wild-type plants", "experiment": "Increasing plant sensitivity to herbicides (adjuvant test)", "type": "in vivo", "settings": "surflan with compound of Formula II at 5 μg/ml versus surflan alone", "description": "Arabidopsis thaliana WS wild-type plants were plated on germination media containing two commonly used herbicides, surflan and pendimethalin, in the presence and absence of an ecto-phosphatase inhibitor of Formula II and monitored for their growth in a 22° C. incubator under constant fluorescent illumination.\nMore specifically, germination media was prepared containing 20 μl/ml, 10 μl/ml, 2 μl/ml, 1 μl/ml, and 0.2 μl/ml of a surflan solution made at the manufacturer's recommended concentration. Compound of Formula II was added to a portion of the germination media at a final concentration of 5 μg/ml.\nArabidopsis thaliana WS wild-type seeds were surface sterilized in a 20% bleach solution for 20 minutes, washed three times in double distilled waster, and resuspended in 0.1% agarose solution. The seeds were then pipetted onto plates containing approximately 3 ml of germination media containing the various concentrations of surflan with and without compound of Formula II. All plates were placed in a 22° C. incubator under constant fluorescent illumination. Growth was assessed daily."}},
  "note": "Like-named read-outs stand apart in the source and are kept apart here.",
  "data": [
    {"smiles": "C[C@@H]1C[C@@H]([C@H](O)CC2CC(=O)NC(=O)C2)C(=O)[C@@H](C)C1", "note": "[cycloheximide]", "values": [
      {"measurement": "germination rate", "setting": "[1]", "value": 50, "unit": "%"},
      {"measurement": "growth in drug", "setting": "[2]; cycloheximide 500 ng/ml", "value": "did not grow"},
      {"measurement": "growth in drug", "setting": "[3]", "value": "did grow"},
      {"measurement": "germination rate", "setting": "[4]", "value": 2, "unit": "%"}
    ]},
    {"smiles": "N#Cc1c(Cl)c(Cl)c(Cl)c(C#N)c1Cl", "note": "[chlorothalonil]", "values": [
      {"measurement": "area of inhibition", "setting": "[5]; chlorothalonil by itself", "value": 0.35, "unit": "in^2"},
      {"measurement": "average radius of inhibition", "setting": "[5]; chlorothalonil disk, plates without ecto-phosphatase inhibitor", "value": 0.33, "unit": "in."}
    ]},
    {"smiles": "O=P(O)(O)O", "note": "[phosphate, potassium phosphate]", "values": [
      {"measurement": "effect on growth of cells overexpressing AtPGP-1 in drug", "setting": "[6]", "value": "slightly inhibitory"},
      {"measurement": "effect on resistance to cycloheximide", "setting": "[6]", "value": "did not enhance resistance"}
    ]},
    {"smiles": "Nc1ncnc2c1ncn2[C@@H]1O[C@H](COP(=O)(O)CP(=O)(O)O)[C@@H](O)[C@H]1O", "note": "[α,β-methyleneadenosine 5′-diphosphate]", "values": [
      {"measurement": "germination rate", "setting": "[1]", "value": 83, "unit": "%"},
      {"measurement": "germination rate", "setting": "[4]", "value": 90, "unit": "%"}
    ]},
    {"smiles": "Nc1ncnc2c1ncn2[C@@H]1O[C@H](CO)[C@@H](O)[C@H]1O", "note": "[adenosine]", "values": [
      {"measurement": "effect on growth of cells overexpressing AtPGP-1 in drug", "setting": "[6]", "value": "slightly inhibitory"},
      {"measurement": "effect on resistance to cycloheximide", "setting": "[6]", "value": "did not enhance resistance"}
    ]},
    {"smiles": "CO[C@@H]1C[C@@H](C[C@H]2CC[C@H](C)[C@H]([C@@H](C)C(=O)O)O2)O[C@]2(O[C@](C)([C@H]3CC[C@@](C)([C@@H]4O[C@@H]([C@H]5O[C@@](O)(CO)[C@H](C)C[C@@H]5C)C[C@@H]4C)O3)C[C@H]2C)[C@@H]1C", "note": "[nigericin]", "values": [
      {"measurement": "growth in drug", "setting": "[2]; nigericin 25 μg/ml, YMR4 containing vector alone", "value": "reduced growth"}
    ]},
    {"smiles": "Nc1ncnc2c1ncn2[C@@H]1O[C@H](COP(=O)(O)OP(=O)(O)OP(=O)(O)O)[C@@H](O)[C@H]1O", "note": "[ATP]", "values": [
      {"measurement": "growth in high levels of ATP", "setting": "[7]; cells not previously selected in drug", "value": "able to grow"},
      {"measurement": "growth in high levels of ATP", "setting": "[7]; cells previously grown in cycloheximide, not overexpressing AtPGP-1", "value": "not able to grow"}
    ]},
    {"smiles": "Cc1cccc(NS(=O)(=O)c2ccc(-c3ccccc3)cc2)c1", "note": "[Formula II]", "values": [
      {"measurement": "surflan concentration at which it is an equally effective weed killer", "setting": "[8]", "value": "five fold less concentration"}
    ]}
  ]
}
